What was measured:
human GIP receptor = target: T1, human GIP receptor (Homo sapiens, UniProt P48546); assay: Inhibition of cAMP production by GIP stimulation in human GIP receptor-expressing CHO cells; format: cell-based; details: for IC50: 100 pM GIP, 37° C., 30 minutes, human GIP receptor-expressing CHO cells, read-out: IC50 (concentration of the compound at which the production of cAMP by GIP is inhibited by 50%)
T1 construct: expressed in transfected cells; host or cells: CHO cells
T1 sequence (P48546 22-466): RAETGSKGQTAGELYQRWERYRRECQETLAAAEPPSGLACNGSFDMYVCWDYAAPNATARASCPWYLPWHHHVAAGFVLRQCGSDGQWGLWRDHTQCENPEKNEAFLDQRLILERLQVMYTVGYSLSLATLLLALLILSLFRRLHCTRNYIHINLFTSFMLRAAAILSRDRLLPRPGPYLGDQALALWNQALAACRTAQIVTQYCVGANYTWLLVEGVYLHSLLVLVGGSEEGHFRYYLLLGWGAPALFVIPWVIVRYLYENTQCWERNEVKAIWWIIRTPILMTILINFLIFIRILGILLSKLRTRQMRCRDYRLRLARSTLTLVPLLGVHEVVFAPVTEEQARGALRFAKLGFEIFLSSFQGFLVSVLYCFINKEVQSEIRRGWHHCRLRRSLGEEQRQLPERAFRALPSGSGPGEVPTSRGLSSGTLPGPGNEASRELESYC
From the text: The system for evaluation of GIP function inhibitors (GIP receptor antagonists and the like) made use of the following method wherein their inhibitory activity on production of cAMP as GIP intracellular transmitter was used as an indicator.
According to a method of Kubota et al. (Diabetes 45: 1701–1705, 1996), human GIP receptor-expressing cells prepared by introducing GIP cDNA into CHO cells were used. First, cAMP was produced by stimulation with 100 pM GIP in the presence/absence of the test chemical at 37° C. for 30 minutes in phosphate-buffered saline, pH 7.4, containing 1 mM isobutylmethylxanthine, 5.6 mM glucose and 0.5% bovine serum albumin. Then, using a cAMP assay system (PE Biosystems), the cells were lyzed with an attached lysis buffer, the amount of cAMP accumulated in the cells was measured, and the inhibitory activity of the test sample on the functions of GIP was determined. To verify the action of the test sample completely irrelevant to the action on GIP receptor, the inhibitory effect of the test sample on formation of cAMP upon stimulating, with 5 μM forskolin, CHO cells into which the GIP receptor gene had not been introduced (cells not expressing the GIP receptor) was also confirmed. The inhibitory activity was expressed in terms of IC50 (concentration of the compound at which the production of cAMP by GIP is inhibited by 50%). A compound not showing any inhibitory activity on formation of cAMP in the cells not expressing the GIP receptor, but inhibiting the formation of cAMP by stimulation with GIP, in the cells expressing the GIP receptor, was regarded as an active compound.

GIP = details: disclosed in WO 01/87341; read-out: IC50 (inhibiting the functions of GIP); cited from earlier work

## O=C(N/N=C/c1ccccc1Br)c1ccc(O)cc1 [Compound 1]
Human GIP receptor
  IC50: 19000 nM
Human GIP receptor; cells expressing the GIP receptor, result in words
  inhibition of cAMP formation upon stimulation with GIP (functions of GIP): inhibited the functions of GIP though at low levels

## Cc1cc(C)c(C)c(Cn2ccc3c(/C=N/NC(=O)c4ccc(O)c(C#N)c4)cccc32)c1C [Compound 2, 3-Cyano-4-hydroxybenzoic acid [1-(2,3,5,6-tetramethylbenzyl)indol-4-yl]methylidene hydrazide]
Human GIP receptor
  IC50: 6.3 nM

## COc1ccc(/C=N/NC(=O)c2ccc(O)c(Cl)c2)c2ccccc12 [Compound 3, 3-Chloro-4-hydroxybenzoic acid (4-methoxynaphthalen-1-yl)methylidene hydrazide]
Human GIP receptor
  IC50: 560 nM

## Cc1cc(O)n2nc(-c3ccccc3)c(Br)c2n1 [3-bromo-5-methyl-2-phenylpyrazolo[1,5-a]pyrimidin-7-ol]
GIP
  IC50: ~40000 nM

## O=C(N/N=C/c1ccc2c(ccn2Cc2ccc(Cl)s2)c1)c1ccc(O)c(Cl)c1 [Compound 4, 3-Chloro-4-hydroxybenzoic acid [1-(5-chlorothiophen-2-ylmethyl)-1H-indol-5-yl]methylidene hydrazide]
Human GIP receptor
  IC50: 440 nM
